According to ChEMBL document CHEMBL5360657, “Discovery of the TLR7/8 Antagonist MHV370 for Treatment of Systemic Autoimmune Diseases” (ACS Med Chem Lett, 2023):
Converted amounts (≈) assume the structure as drawn.

Legend:
[1] = Solubility of the compound; type: physicochemical
Toll-like receptor 7 = target: T1, Toll-like receptor 7 (Mus musculus, UniProt P58681); test: Antagonist activity at TLR7 in mouse Splenocyte assessed as reduction in IFN-alpha level measured after 20 hrs by Spectramax M5 method; type: cell-based
T1 sequence (P58681 whole entry): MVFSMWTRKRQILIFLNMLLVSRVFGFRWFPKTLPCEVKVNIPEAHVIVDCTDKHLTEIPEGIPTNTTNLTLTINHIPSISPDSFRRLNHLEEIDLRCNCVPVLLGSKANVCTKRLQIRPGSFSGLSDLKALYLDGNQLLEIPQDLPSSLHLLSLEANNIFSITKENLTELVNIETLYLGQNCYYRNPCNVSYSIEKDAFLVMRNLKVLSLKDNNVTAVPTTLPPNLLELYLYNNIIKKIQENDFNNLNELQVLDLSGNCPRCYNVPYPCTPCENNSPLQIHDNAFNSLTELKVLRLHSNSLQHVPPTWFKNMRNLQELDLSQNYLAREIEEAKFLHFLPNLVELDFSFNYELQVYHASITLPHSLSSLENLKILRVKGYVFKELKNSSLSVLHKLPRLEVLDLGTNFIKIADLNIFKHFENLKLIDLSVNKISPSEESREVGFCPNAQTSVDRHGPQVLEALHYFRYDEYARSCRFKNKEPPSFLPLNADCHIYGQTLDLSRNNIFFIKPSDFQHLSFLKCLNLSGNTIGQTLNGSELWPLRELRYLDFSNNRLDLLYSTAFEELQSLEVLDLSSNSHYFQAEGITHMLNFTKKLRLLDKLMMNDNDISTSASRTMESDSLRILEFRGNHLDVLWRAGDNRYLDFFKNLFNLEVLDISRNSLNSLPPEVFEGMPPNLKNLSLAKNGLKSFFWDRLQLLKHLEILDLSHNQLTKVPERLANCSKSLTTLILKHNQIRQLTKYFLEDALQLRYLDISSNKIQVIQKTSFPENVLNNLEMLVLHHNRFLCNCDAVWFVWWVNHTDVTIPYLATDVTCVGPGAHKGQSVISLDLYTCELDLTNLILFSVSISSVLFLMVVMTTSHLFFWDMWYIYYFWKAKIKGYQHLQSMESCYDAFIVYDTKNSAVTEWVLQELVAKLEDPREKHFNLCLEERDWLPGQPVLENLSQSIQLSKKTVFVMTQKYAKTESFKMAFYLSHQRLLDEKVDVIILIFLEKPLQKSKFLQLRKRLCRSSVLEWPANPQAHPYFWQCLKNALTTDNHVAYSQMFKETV

[2] = target: Voltage-gated inwardly rectifying potassium channel KCNH2 (Homo sapiens, UniProt Q12809); test: Displacement of [3H]-dofetilite from human ERG (unknown origin); type: toxicity
Chain of Voltage-gated inwardly rectifying potassium channel KCNH2 (Q12809 whole entry): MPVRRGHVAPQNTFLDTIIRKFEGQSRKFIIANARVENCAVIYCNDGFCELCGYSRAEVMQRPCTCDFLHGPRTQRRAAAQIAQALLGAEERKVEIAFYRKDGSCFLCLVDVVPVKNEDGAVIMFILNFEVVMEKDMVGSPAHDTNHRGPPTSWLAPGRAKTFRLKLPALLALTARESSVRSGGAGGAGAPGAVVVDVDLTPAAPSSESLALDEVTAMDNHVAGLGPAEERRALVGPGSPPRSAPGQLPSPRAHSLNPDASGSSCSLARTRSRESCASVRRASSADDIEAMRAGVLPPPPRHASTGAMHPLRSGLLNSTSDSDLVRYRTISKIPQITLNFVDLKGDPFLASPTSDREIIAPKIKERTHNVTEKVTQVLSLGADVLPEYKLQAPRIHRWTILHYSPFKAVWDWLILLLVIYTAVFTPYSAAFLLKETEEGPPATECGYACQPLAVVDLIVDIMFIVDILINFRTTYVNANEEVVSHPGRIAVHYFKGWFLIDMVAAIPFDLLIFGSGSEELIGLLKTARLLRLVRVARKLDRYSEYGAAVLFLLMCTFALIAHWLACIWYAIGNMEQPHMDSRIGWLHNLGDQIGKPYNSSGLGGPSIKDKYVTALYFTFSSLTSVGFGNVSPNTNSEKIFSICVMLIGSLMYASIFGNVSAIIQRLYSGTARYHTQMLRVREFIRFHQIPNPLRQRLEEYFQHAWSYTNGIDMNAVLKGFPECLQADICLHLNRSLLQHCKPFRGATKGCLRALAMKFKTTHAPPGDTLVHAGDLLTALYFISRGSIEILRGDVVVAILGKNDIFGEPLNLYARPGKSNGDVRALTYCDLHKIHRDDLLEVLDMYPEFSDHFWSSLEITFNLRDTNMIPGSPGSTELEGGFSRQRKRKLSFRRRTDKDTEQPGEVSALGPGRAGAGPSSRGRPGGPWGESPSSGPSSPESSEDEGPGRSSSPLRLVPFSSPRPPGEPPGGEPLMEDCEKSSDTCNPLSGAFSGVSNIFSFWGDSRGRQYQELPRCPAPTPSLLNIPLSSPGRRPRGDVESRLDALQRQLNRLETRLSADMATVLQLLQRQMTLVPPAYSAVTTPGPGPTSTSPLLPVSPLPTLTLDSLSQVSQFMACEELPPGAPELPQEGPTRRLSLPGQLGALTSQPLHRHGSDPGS

solubility [1]: 110 µM (≈ 43.1 µg/mL)
IC50 (Toll-like receptor 7): < 0.005 µM
SMILES: Cc1cc(-c2cnc(OCC34CCC(N)(CC3)CC4)c(C)c2)c2cnn(C)c2n1
IC50 [2]: 3.4 µM
